Assay results reported in PubChem BioAssay (NCI).
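Compound exposure: 48 hours, 5 concentrations, 96-well plates. Here, GI50 denotes the concentration required for 50% inhibition of growth. TGI: total growth inhibition.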

Legend:
Experiment in all cases: inhibition of tumour cell growth, NCI panel, 48 h
OVCAR-8 ovarian = test system: OVCAR-8 ovarian
OVCAR-5 ovarian = test system: OVCAR-5 ovarian
HCT-15 colon = test system: HCT-15 colon
UO-31 renal = test system: UO-31 renal
SNB-75 CNS = test system: SNB-75 CNS
PC-3 prostate = test system: PC-3 prostate
NCI-H460 lung = test system: NCI-H460 lung
NCI-H23 lung = test system: NCI-H23 lung
A549 NSCLC = test system: A549 NSCLC
KM12 colon = test system: KM12 colon
SK-MEL-28 melanoma = test system: SK-MEL-28 melanoma
BT-549 breast = test system: BT-549 breast
RPMI-8226 leukemia = test system: RPMI-8226 leukemia
786-0 renal = test system: 786-0 renal
CCRF-CEM leukemia = test system: CCRF-CEM leukemia
NCI-H522 lung = test system: NCI-H522 lung
EKVX NSCLC = test system: EKVX NSCLC
OVCAR-4 ovarian = test system: OVCAR-4 ovarian
NCI/ADR-RES ovarian = test system: NCI/ADR-RES ovarian
OVCAR-3 ovarian = test system: OVCAR-3 ovarian
SK-OV-3 ovarian = test system: SK-OV-3 ovarian
SF-268 CNS = test system: SF-268 CNS
HCT-116 colon = test system: HCT-116 colon
TK-10 renal = test system: TK-10 renal
SNB-19 CNS = test system: SNB-19 CNS
UACC-257 melanoma = test system: UACC-257 melanoma
M14 melanoma = test system: M14 melanoma
HCC-2998 colon = test system: HCC-2998 colon
SK-MEL-5 melanoma = test system: SK-MEL-5 melanoma
HOP-62 NSCLC = test system: HOP-62 NSCLC
SK-MEL-2 melanoma = test system: SK-MEL-2 melanoma
T-47D breast = test system: T-47D breast
NCI-H226 lung = test system: NCI-H226 lung
HT29 colon = test system: HT29 colon
MDA-MB-231 breast = test system: MDA-MB-231 breast
ACHN renal = test system: ACHN renal
A498 renal = test system: A498 renal
HOP-92 NSCLC = test system: HOP-92 NSCLC
DU-145 prostate = test system: DU-145 prostate
SW-620 colon = test system: SW-620 colon
RXF 393 renal = test system: RXF 393 renal
U251 CNS = test system: U251 CNS
COLO 205 colon = test system: COLO 205 colon
K-562 leukemia = test system: K-562 leukemia
HL-60(TB) leukemia = test system: HL-60(TB) leukemia
CAKI-1 renal = test system: CAKI-1 renal
SF-539 CNS = test system: SF-539 CNS
UACC-62 melanoma = test system: UACC-62 melanoma
MDA-MB-435 = test system: MDA-MB-435
MOLT-4 leukemia = test system: MOLT-4 leukemia
SR leukemia = test system: SR leukemia
SF-295 CNS = test system: SF-295 CNS
MALME-3M melanoma = test system: MALME-3M melanoma
MCF7 breast = test system: MCF7 breast
LOX IMVI melanoma = test system: LOX IMVI melanoma
HS 578T breast = test system: HS 578T breast
SN12C renal = test system: SN12C renal
IGROV1 ovarian = test system: IGROV1 ovarian

Compound: Cc1sc(C(=O)c2cncnc2N[C@@H]2C[C@H](COS(N)(=O)=O)[C@@H](O)C2)cc1[C@@H]1NCCc2ccc(Cl)cc21
- GI50 (OVCAR-8 ovarian): 11.7 µM
- TGI (OVCAR-8 ovarian): 58.7 µM
- GI50 (OVCAR-5 ovarian): 9.43 µM
- TGI (OVCAR-5 ovarian): 23.6 µM
- GI50 (HCT-15 colon): 6.64 µM
- TGI (HCT-15 colon): 21.1 µM
- GI50 (UO-31 renal): 3.66 µM
- TGI (UO-31 renal): 24.6 µM
- GI50 (SNB-75 CNS): 1.65 µM
- TGI (SNB-75 CNS): 20.1 µM
- GI50 (PC-3 prostate): 5.44 µM
- TGI (PC-3 prostate): 24.5 µM
- GI50 (NCI-H460 lung): 0.466 µM
- TGI (NCI-H460 lung): 20.6 µM
- GI50 (NCI-H23 lung): 11.8 µM
- TGI (NCI-H23 lung): 27 µM
- GI50 (A549 NSCLC): 2.21 µM
- TGI (A549 NSCLC): 22.3 µM
- GI50 (KM12 colon): 13.1 µM
- TGI (KM12 colon): 28.3 µM
- GI50 (SK-MEL-28 melanoma): 9.88 µM
- TGI (SK-MEL-28 melanoma): 22.1 µM
- GI50 (BT-549 breast): 12.8 µM
- TGI (BT-549 breast): 26.6 µM
- GI50 (RPMI-8226 leukemia): 2.01 µM
- TGI (RPMI-8226 leukemia): 22.2 µM
- GI50 (786-0 renal): 12.9 µM
- TGI (786-0 renal): 28.8 µM
- GI50 (CCRF-CEM leukemia): 0.0801 µM
- TGI (CCRF-CEM leukemia): 20.1 µM
- GI50 (NCI-H522 lung): 3.49 µM
- TGI (NCI-H522 lung): 25.9 µM
- GI50 (EKVX NSCLC): 8.88 µM
- TGI (EKVX NSCLC): 25.7 µM
- GI50 (OVCAR-4 ovarian): 4.38 µM
- TGI (OVCAR-4 ovarian): 31.1 µM
- GI50 (NCI/ADR-RES ovarian): 51.8 µM
- TGI (NCI/ADR-RES ovarian): > 100 µM
- GI50 (OVCAR-3 ovarian): 4.98 µM
- TGI (OVCAR-3 ovarian): 21.7 µM
- GI50 (SK-OV-3 ovarian): 2.65 µM
- TGI (SK-OV-3 ovarian): 25.2 µM
- GI50 (SF-268 CNS): 14.4 µM
- TGI (SF-268 CNS): 32.4 µM
- GI50 (HCT-116 colon): 1.31 µM
- TGI (HCT-116 colon): 22.6 µM
- GI50 (TK-10 renal): 12.9 µM
- TGI (TK-10 renal): 26.8 µM
- GI50 (SNB-19 CNS): 14.8 µM
- TGI (SNB-19 CNS): 28.8 µM
- GI50 (UACC-257 melanoma): 0.0793 µM
- TGI (UACC-257 melanoma): 20.1 µM
- GI50 (M14 melanoma): 0.572 µM
- TGI (M14 melanoma): 21.6 µM
- GI50 (HCC-2998 colon): 0.922 µM
- TGI (HCC-2998 colon): 19.9 µM
- GI50 (SK-MEL-5 melanoma): 1.94 µM
- TGI (SK-MEL-5 melanoma): 17.3 µM
- GI50 (HOP-62 NSCLC): 12.9 µM
- TGI (HOP-62 NSCLC): 28.1 µM
- GI50 (SK-MEL-2 melanoma): 5.58 µM
- TGI (SK-MEL-2 melanoma): 23.9 µM
- GI50 (T-47D breast): 2.37 µM
- TGI (T-47D breast): 29.3 µM
- GI50 (NCI-H226 lung): 10.3 µM
- TGI (NCI-H226 lung): 25.7 µM
- GI50 (HT29 colon): 0.234 µM
- TGI (HT29 colon): 20.9 µM
- GI50 (MDA-MB-231 breast): 9.29 µM
- TGI (MDA-MB-231 breast): 24.8 µM
- GI50 (ACHN renal): 11.8 µM
- TGI (ACHN renal): 25.7 µM
- GI50 (A498 renal): 4.26 µM
- TGI (A498 renal): 20.2 µM
- GI50 (HOP-92 NSCLC): 0.0783 µM
- TGI (HOP-92 NSCLC): 12.9 µM
- GI50 (DU-145 prostate): 13.2 µM
- TGI (DU-145 prostate): 27.8 µM
- GI50 (SW-620 colon): 7.63 µM
- TGI (SW-620 colon): 24.5 µM
- GI50 (RXF 393 renal): 6.35 µM
- TGI (RXF 393 renal): 22 µM
- GI50 (U251 CNS): 10.9 µM
- TGI (U251 CNS): 26.7 µM
- GI50 (COLO 205 colon): 0.041 µM
- TGI (COLO 205 colon): 11.8 µM
- GI50 (K-562 leukemia): 4.19 µM
- TGI (K-562 leukemia): 34.2 µM
- GI50 (HL-60(TB) leukemia): 0.294 µM
- TGI (HL-60(TB) leukemia): 13.2 µM
- GI50 (CAKI-1 renal): 1.63 µM
- TGI (CAKI-1 renal): 25.5 µM
- GI50 (SF-539 CNS): 1.48 µM
- TGI (SF-539 CNS): 20.3 µM
- GI50 (UACC-62 melanoma): 3.75 µM
- TGI (UACC-62 melanoma): 21.7 µM
- GI50 (MDA-MB-435): 0.156 µM
- TGI (MDA-MB-435): 14.8 µM
- GI50 (MOLT-4 leukemia): 0.59 µM
- TGI (MOLT-4 leukemia): 23.4 µM
- GI50 (SR leukemia): 0.547 µM
- TGI (SR leukemia): 26.3 µM
- GI50 (SF-295 CNS): 11 µM
- TGI (SF-295 CNS): 23.2 µM
- GI50 (MALME-3M melanoma): 0.0394 µM
- TGI (MALME-3M melanoma): 15.5 µM
- GI50 (MCF7 breast): 0.0138 µM
- TGI (MCF7 breast): 17.3 µM
- GI50 (LOX IMVI melanoma): 0.0959 µM
- TGI (LOX IMVI melanoma): 15.6 µM
- GI50 (HS 578T breast): 6.08 µM
- TGI (HS 578T breast): 44 µM
- GI50 (SN12C renal): 9.85 µM
- TGI (SN12C renal): 24.5 µM
- GI50 (IGROV1 ovarian): 11 µM
- TGI (IGROV1 ovarian): 25.7 µM
